Measured values taken from patent US10770169B2, “Method of providing a treatment to a subject based on a dynamic pathway map” (THE REGENTS OF THE UNIVERSITY OF CALIFORNIA, priority 2010, dated 2020).
Where two headings read alike, the source gives them in different places.

System: panel of 55 breast cancer cell lines
Assay: Cell growth inhibition assay (Cell Titer Glo, 72 h, 9 doses; GI50, TGI, LC50)
Assay type: cell-based, human
Conditions: Homo sapiens, read-out: GI50 (converted)

COc1cccc2c1C(=O)c1c(O)c3c(c(O)c1C2=O)C[C@@](O)(C(=O)CO)C[C@@H]3O[C@H]1C[C@H](N)[C@@H](O)[C@H](C)O1 [Epirubicin]
GI50 (600MPE cell line, censored GI50 values): 347 nM | GI50 (AU565, AU565 cell line, censored GI50 values): 145 nM | GI50 (AU565, cell line AU565): 145 nM | GI50 (BT-474, BT474 cell line, censored GI50 values): 6760 nM | GI50 (BT-474, cell line BT474): 6760 nM | GI50 (BT-483, BT483 cell line, censored GI50 values): 166 nM | GI50 (BT-483, cell line BT483): 166 nM | GI50 (BT-549, BT549 cell line, censored GI50 values): 204 nM | GI50 (BT-549, cell line BT549): 204 nM | GI50 (HCC38, HCC38 cell line, censored GI50 values): 93.3 nM | GI50 (HCC38, cell line HCC38): 93.3 nM | GI50 (HCC70, HCC70 cell line, censored GI50 values): 417 nM | GI50 (HCC70, cell line HCC70): 417 nM | GI50 (HCC202, HCC202 cell line, censored GI50 values): 603 nM | GI50 (HCC202, cell line HCC202): 603 nM | GI50 (HCC1143, HCC1143 cell line, censored GI50 values): 288 nM | GI50 (HCC1143, cell line HCC1143): 288 nM | GI50 (HCC1187, HCC1187 cell line, censored GI50 values): 1000 nM | GI50 (HCC1187, cell line HCC1187): 1000 nM | GI50 (HCC1395, HCC1395 cell line, censored GI50 values): 447 nM | GI50 (HCC1395, cell line HCC1395): 447 nM | GI50 (HCC1419, HCC1419 cell line, censored GI50 values): 708 nM | GI50 (HCC1419, cell line HCC1419): 708 nM | GI50 (HCC1428, HCC1428 cell line, censored GI50 values): 1350 nM | GI50 (HCC1428, cell line HCC1428): 1350 nM | GI50 (HCC1500, HCC1500 cell line, censored GI50 values): 245 nM | GI50 (HCC1500, cell line HCC1500): 245 nM | GI50 (HCC1806, HCC1806 cell line, censored GI50 values): 166 nM | GI50 (HCC1806, cell line HCC1806): 166 nM | GI50 (HCC1937, HCC1937 cell line, censored GI50 values): 204 nM | GI50 (HCC1937, cell line HCC1937): 204 nM | GI50 (HCC1954, HCC1954 cell line, censored GI50 values): 200 nM | GI50 (HCC1954, cell line HCC1954): 200 nM | GI50 (HCC2185 cell line, censored GI50 values): 126 nM | GI50 (HCC3153 cell line, censored GI50 values): 646 nM | GI50 (LY2 cell line, censored GI50 values): 214 nM | GI50 (MCF7, MCF7 cell line, censored GI50 values): 355 nM | GI50 (MCF7, cell line MCF7): 355 nM | GI50 (MDA-MB-134-VI, MDAMB134VI cell line, censored GI50 values): 1050 nM | GI50 (MDA-MB-157, MDAMB157 cell line, censored GI50 values): 550 nM | GI50 (MDA-MB-157, cell line MDAMB157): 550 nM | GI50 (MDA-MB-175-VII, MDAMB175VII cell line, censored GI50 values): 100 nM | GI50 (MDA-MB-231, MDAMB231 cell line, censored GI50 values): 269 nM | GI50 (MDA-MB-231, cell line MDAMB231): 269 nM | GI50 (MDA-MB-361, MDAMB361 cell line, censored GI50 values): 224 nM | GI50 (MDA-MB-361, cell line MDAMB361): 224 nM | GI50 (MDA-MB-415, MDAMB415 cell line, censored GI50 values): 263 nM | GI50 (MDA-MB-415, cell line MDAMB415): 263 nM | GI50 (MDA-MB-436, MDAMB436 cell line, censored GI50 values): 708 nM | GI50 (MDA-MB-436, cell line MDAMB436): 708 nM | GI50 (MDA-MB-453, MDAMB453 cell line, censored GI50 values): 224 nM | GI50 (MDA-MB-453, cell line MDAMB453): 224 nM | GI50 (MDA-MB-468, MDAMB468 cell line, censored GI50 values): 692 nM | GI50 (MDA-MB-468, cell line MDAMB468): 692 nM | GI50 (SUM52PE, SUM52PE cell line, censored GI50 values): 295 nM | GI50 (SUM52PE, cell line SUM52PE): 295 nM | GI50 (SUM149PT, SUM149PT cell line, censored GI50 values): 219 nM | GI50 (SUM149PT, cell line SUM149PT): 219 nM | GI50 (SUM185PE, SUM185PE cell line, censored GI50 values): 407 nM | GI50 (SUM185PE, cell line SUM185PE): 407 nM | GI50 (SUM1315MO2, SUM1315MO2 cell line, censored GI50 values): 36.3 nM | GI50 (SUM-159-PT, SUM159PT cell line, censored GI50 values): 141 nM | GI50 (SUM-159-PT, cell line SUM159PT): 141 nM | GI50 (UACC-812, UACC812 cell line, censored GI50 values): 251 nM | GI50 (UACC-812, cell line UACC812): 251 nM | GI50 (UACC-893, UACC893 cell line, censored GI50 values): 776 nM | GI50 (UACC-893, cell line UACC893): 776 nM | GI50 (ZR-75-1, ZR751 cell line, censored GI50 values): 251 nM | GI50 (ZR-75-1, cell line ZR751): 251 nM | GI50 (ZR-75B, ZR75B cell line, censored GI50 values): 115 nM | GI50 (ZR-75B, cell line ZR75B): 115 nM | GI50 (cell line 600MPE): 347 nM | GI50 (cell line HCC2185): 126 nM | GI50 (cell line HCC3153): 646 nM | GI50 (cell line LY2): 214 nM | GI50 (cell line MDAMB134V): 1050 nM | GI50 (cell line MDAMB175V): 100 nM | GI50 (cell line SUM1315MO): 36.3 nM
